Assay results as given in US20250051361A1, “5,6,7,8-TETRAHYDRO-2,6-NAPHTHYRIDINE DERIVATIVES AS CANCER THERAPEUTICS” (VRise Therapeutics, Inc., priority 2021, published 2025).
pIC50: −log10 of the molar value. Where a name gives a salt, the structure may show the parent alone.

Legend:
AGS cells = assay: In vitro cell proliferation assay in AGS cell line; assay type: cell-based; settings: Homo sapiens; for inhibition at 3 µM: TC1: Test Concentration of 3 uM; for inhibition at 10 µM: TC2: Test Concentration of 10 uM
Method: (§1) Test 1: In Vitro Cell Proliferation Assay in HPAC and AGS Cell Lines
(§2) Growth inhibition assays was carried out using 10% FBS supplemented media. Cells are to be seeded at a concentration of 2000-3,000 cells/well in a 96-well plate. Test compounds at a concentration range from 0.1 to 30 uM will be added after 24 hours. Growth will be assessed using the MTT or CCK-8 kit for measuring reduction at 0 h (prior to the addition of the test compound) and 72 to 96 hours after the addition of test compound. Absorbance read on a BIO-RAD iMark Microplate or any equivalent micloplate reader at a wavelength of 450 nm to 600 nm. Data will be analyzed and percent inhibition due to the test compound compared to the control is calculated accordingly.

HPAC cells = assay: In vitro cell proliferation assay in HPAC cell line; assay type: cell-based; settings: for inhibition at 3 µM / inhibition at 10 µM: Homo sapiens; for inhibition at 3 µM / % Inhibition of Cell Proliferation HPAC TC1: TC1: Test Concentration of 3 uM; for inhibition at 10 µM: TC2: Test Concentration of 10 uM; for % Inhibition of Cell Proliferation HPAC TC1: 3 µM
Method: as §1, §2

human KRAS G12D protein = target: T1, human KRAS G12D protein (Homo sapiens, UniProt P01116, G12D); assay: HTRF-based nucleotide exchange assay detecting GTP binding to K-Ras; assay type: biochemical; settings: human KRAS G12D (amino acid 2-169), SOS1 mediated exchange
T1 construct: A human KRAS G12D protein (corresponding to amino acid 2-169)
Method: Test 3: Nucleotide Exchange Assay HTRF-based nucleotide exchange assay detecting GTP binding to K-Ras A human KRAS G12D protein (corresponding to amino acid 2-169) was mixed with a a-GST Tb antibody (1.5× solution) and 10 uL of the solution was added to the reaction wells). Compounds (each 10 concentrations or any other concentration of choice at 3-fold or fold of choice for serial dilutions with a starting concentration of […] or or 100 μM or 50 uM) were then delivered to the reaction wells using acoustic dispenser (Echo, Labcyte) and incubated with the Kras/aGST-Tb antibody for 1-hour at room temperature. […] HTRF based SOS1 mediated exchange of GDP to GTP was measured on a microplate reader […] (BMG Labtech) at an excitation wavelength of 337 nm and emission wavelengths of 665 and 620 nm. No-SOS1 reaction or highest control compound concentration was used as blank and % inhibition was calculated and/or IC50 was determined using Sigmoidal dose response (variable slope) equation.

T1 sequence (P01116 2-169 isoform P01116-2 G12D): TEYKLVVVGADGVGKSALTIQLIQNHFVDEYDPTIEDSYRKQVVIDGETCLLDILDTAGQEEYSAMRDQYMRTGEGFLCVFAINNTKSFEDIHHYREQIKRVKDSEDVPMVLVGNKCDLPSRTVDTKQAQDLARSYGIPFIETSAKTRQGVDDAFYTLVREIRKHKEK

SMILES | inhibition at 3 µM (AGS cells) | inhibition at 10 µM (AGS cells) | inhibition at 3 µM (HPAC cells) | inhibition at 10 µM (HPAC cells) | further results
CN1CCC[C@H]1COc1nc(N2[C@@H]3CC[C@H]2CN(C(=O)OC(C)(C)C)C3)c2c(c1C#N)CN(c1cc(O)cc3ccccc13)CC2 [Ex 4, tert-butyl (1R,5S)-8-(4-cyano-6-(3-hydroxynaphthalen-1-yl)-3-(((S)-1-methylpyrrolidin-2-yl)methoxy)-5,6,7,8-tetrahydro-2,6-naphthyridin-1-yl)-3,8-diazabicyclo[3.2.1]octane-3-carboxylate] | 75 to 100% | 75 to 100% |  |  | 
CC(C)[C@@H](N)C(=O)N1CCN(c2nc(OC[C@@H]3CCCN3C)c(C#N)c3c2CCN(Cc2ccccc2)C3)CC1 [Ex 21, 1-(4-(D-valyl)piperazin-1-yl)-6-benzyl-3-(((S)-1-methylpyrrolidin-2-yl)methoxy)-5,6,7,8-tetrahydro-2,6-naphthyridine-4-carbonitrile Hydrochloride] |  |  | ≤ 25% | ≤ 25% | 
N#Cc1c(OCC23CCCN2CCC3)nc(N2[C@@H]3CC[C@H]2CNC3)c2c1CN(c1cccc3cccc(Br)c13)CC2 [Ex 7, 1-((1R,5S)-3,8-diazabicyclo[3.2.1]octan-8-yl)-6-(8-bromonaphthalen-1-yl)-3-((tetrahydro-1H-pyrrolizin-7a(5H)-yl)methoxy)-5,6,7,8-tetrahydro-2,6-naphthyridine-4-carbonitrile TFA salt] |  |  | 75 to 100% | 75 to 100% | 
C#Cc1cccc2cccc(N3CCc4c(N5[C@@H]6CC[C@H]5CNC6)nc(OCC56CCCN5CCC6)c(C#N)c4C3)c12 [Ex 12, 1-((1R,5S)-3,8-diazabicyclo[3.2.1]octan-8-yl)-6-(8-ethynylnaphthalen-1-yl)-3-((tetrahydro-1H-pyrrolizin-7a(5H)-yl)methoxy)-5,6,7,8-tetrahydro-2,6-naphthyridine-4-carbonitrile Hydrochloride] |  |  |  |  | % Inhibition of Cell Proliferation HPAC TC1 (HPAC cells; Hydrochloride): C (C = >50 to ≤75)
C#Cc1cccc2cccc(N3CCc4c(N5[C@@H]6CC[C@H]5CNC6)nc(OCC56CCCN5CCC6)c(C#N)c4C3)c12 [Ex 8, 1-((1R,5S)-3,8-diazabicyclo[3.2.1]octan-8-yl)-6-(8-ethynylnaphthalen-1-yl)-3-((tetrahydro-1H-pyrrolizin-7a(5H)-yl)methoxy)-5,6,7,8-tetrahydro-2,6-naphthyridine-4-carbonitrile TFA Salt] |  |  |  | 50 to 75% | % Inhibition of Cell Proliferation HPAC TC1 (HPAC cells; TFA Salt): A (A = ≤25%)
CN1CCC[C@H]1COc1nc(N2[C@@H]3CC[C@H]2CNC3)c2c(c1C#N)CN(c1cc(O)cc3ccccc13)CC2 [Ex 5, 1-((1R,5S)-3,8-diazabicyclo[3.2.1]octan-8-yl)-6-(3-hydroxynaphthalen-1-yl)-3-(((S)-1-methylpyrrolidin-2-yl)methoxy)-5,6,7,8-tetrahydro-2,6-naphthyridine-4-carbonitrile Hydrochloride] | 25 to 50% | 75 to 100% |  |  | 
CN1CCC[C@H]1COc1nc(N2[C@@H]3CC[C@H]2CNC3)c2c(c1C#N)CN(c1cccc3cccc(Br)c13)CC2 [Ex 10, 1-((1R,5S)-3,8-diazabicyclo[3.2.1]octan-8-yl)-6-(8-bromonaphthalen-1-yl)-3-(((S)-1-methylpyrrolidin-2-yl)methoxy)-5,6,7,8-tetrahydro-2,6-naphthyridine-4-carbonitrile Hydrochloride] |  |  | 75 to 100% | 75 to 100% | 
N#Cc1c(OCC23CCCN2C[C@H](F)C3)nc(N2CC3CCC(C2)N3)c2c1CN(Cc1ccccc1)CC2 (stereo partly drawn) [Ex 19, 6-benzyl-1-(3,8-diazabicyclo[3.2.1]octan-3-yl)-3-(((2R)-2-fluorotetrahydro-1H-pyrrolizin-7a(5H)-yl)methoxy)-5,6,7,8-tetrahydro-2,6-naphthyridine-4-carbonitrile Hydrochloride] | 25 to 50% | 50 to 75% | ≤ 25% | 75 to 100% | pIC50 (human KRAS G12D protein): < 6.00
CN1CCC[C@H]1COc1nc(N2CC3CCC(C2)N3)c2c(c1C#N)CN(c1cc(O)cc3ccccc13)CC2 [Ex 1, 1-(3,8-diazabicyclo[3.2.1]octan-3-yl)-6-(3-hydroxynaphthalen-1-yl)-3-(((S)-1-methylpyrrolidin-2-yl)methoxy)-5,6,7,8-tetrahydro-2,6-naphthyridine-4-carbonitrile, hydrochloride] | 25 to 50% | 75 to 100% |  |  | 
N#Cc1c(OCC2(CN3CCOCC3)CC2)nc(N2C[C@H]3CC[C@@H](C2)N3)c2c1CN(Cc1ccccc1)CC2 [Ex 24, 6-benzyl-1-((1R,5S)-3,8-diazabicyclo[3.2.1]octan-3-yl)-3-((1-(morpholinomethyl)cyclopropyl)methoxy)-5,6,7,8-tetrahydro-2,6-naphthyridine-4-carbonitrile Hydrochloride] |  |  | ≤ 25% | 25 to 50% | pIC50 (human KRAS G12D protein): < 6.00
CN1CCC[C@H]1COc1nc(N2[C@@H]3CC[C@H]2CNC3)c2c(c1C#N)CN(c1cc(O)cc3cccc(Br)c13)CC2 [Ex 15, 1-((1R,5S)-3,8-diazabicyclo[3.2.1]octan-8-yl)-6-(8-bromo-3-hydroxynaphthalen-1-yl)-3-(((S)-1-methylpyrrolidin-2-yl)methoxy)-5,6,7,8-tetrahydro-2,6-naphthyridine-4-carbonitrile Hydrochloride] |  |  | ≤ 25% | 75 to 100% | 
CC(C)[C@@H](NC(=O)OC(C)(C)C)C(=O)N1CCN(c2nc(OC[C@@H]3CCCN3C)c(C#N)c3c2CCN(Cc2ccccc2)C3)CC1 [Ex 20, tert-butyl ((R)-1-(4-(6-benzyl-4-cyano-3-(((S)-1-methylpyrrolidin-2-yl)methoxy)-5,6,7,8-tetrahydro-2,6-naphthyridin-1-yl)piperazin-1-yl)-3-methyl-1-oxobutan-2-yl)carbamate] |  |  | ≤ 25% | 25 to 50% | 
N#Cc1c(OCC23CCCN2CCC3)nc(N2[C@@H]3CC[C@H]2CNC3)c2c1CN(c1cc(O)cc3cccc(Br)c13)CC2 [Ex 9, 1-((1R,5S)-3,8-diazabicyclo[3.2.1]octan-8-yl)-6-(8-bromo-3-hydroxynaphthalen-1-yl)-3-((tetrahydro-1H-pyrrolizin-7a(5H)-yl)methoxy)-5,6,7,8-tetrahydro-2,6-naphthyridine-4-carbonitrile Hydrochloride] |  |  | ≤ 25% | 75 to 100% | 
C[C@H]1CNCCN1c1nc(OCC2CCCN2C)c(C#N)c2c1CCN(Cc1ccccc1)C2 (stereo partly drawn) [Ex 75, 6-benzyl-1-((S)-2-methylpiperazin-1-yl)-3-((1-methylpyrrolidin-2-yl)methoxy)-5,6,7,8-tetrahydro-2,6-naphthyridine-4-carbonitrile hydrochloride] | ≤ 25% | ≤ 25% | ≤ 25% | ≤ 25% | 
C#Cc1cccc2cc(O)cc(N3CCc4c(N5[C@@H]6CC[C@H]5CNC6)nc(OCC56CCCN5CCC6)c(C#N)c4C3)c12 [Ex 14, 1-((1R,5S)-3,8-diazabicyclo[3.2.1]octan-8-yl)-6-(8-ethynyl-3-hydroxynaphthalen-1-yl)-3-((tetrahydro-1H-pyrrolizin-7a(5H)-yl)methoxy)-5,6,7,8-tetrahydro-2,6-naphthyridine-4-carbonitrile Hydrochloride] |  |  | ≤ 25% | 50 to 75% | 
C[C@@H](OCc1ccccc1)[C@H](N)C(=O)N1CCN(c2nc(OC[C@@H]3CCCN3C)c(C#N)c3c2CCN(Cc2ccccc2)C3)CC1 [Ex 23, 6-benzyl-1-(4-(O-benzyl-L-threonyl)piperazin-1-yl)-3-(((S)-1-methylpyrrolidin-2-yl)methoxy)-5,6,7,8-tetrahydro-2,6-naphthyridine-4-carbonitrile Hydrochloride] |  |  | ≤ 25% | 50 to 75% | 
CN1CCC[C@H]1COc1nc(N2CCNC(CC#N)C2)c2c(c1C#N)CN(c1cccc3cccc(Cl)c13)CC2 (stereo partly drawn) [Ex 3, 6-(8-chloronaphthalen-1-yl)-1-(3-(cyanomethyl)piperazin-1-yl)-3-(((S)-1-methylpyrrolidin-2-yl)methoxy)-5,6,7,8-tetrahydro-2,6-naphthyridine-4-carbonitrile hydrochloride] | 25 to 50% | 75 to 100% |  |  | 
CN1CCC[C@H]1COc1nc(N2CC3CCC(C2)N3)c2c(c1C#N)CN(Cc1ccccc1)CC2 [Ex 18, 6-benzyl-1-(3,8-diazabicyclo[3.2.1]octan-3-yl)-3-(((S)-1-methylpyrrolidin-2-yl)methoxy)-5,6,7,8-tetrahydro-2,6-naphthyridine-4-carbonitrile Hydrochloride] | 25 to 50% | 75 to 100% | ≤ 25% | 25 to 50% | 
